In ChEMBL document CHEMBL1129091, “Synthesis and biological evaluation of a bicyclo [7.4.1]enediyne” (Bioorg Med Chem Lett, 1996) one finds IC50 data, which are given here for one compound.

≈ marks a conversion by molar mass, not a printed value.

By IC50 is commonly meant the midpoint of a concentration-inhibition curve.

The test concerns HCT-116. The experiment in a line: In vitro cytotoxicity against human colon carcinoma cells (HCT116). Type of test: functional, cell-based.

In turn, `CC1(C)C2=CC(=O)CC[C@@]1(O)C#C/C=C\C#C[C@H]2O` gave an IC50 of 18 µg/mL (≈ 70.2 µM).
